Where “and” joins values, the source holds several entries; their conditions need not be identical. Equal entries are not always repeated.
Biological target: MMP-13CD (catalytic domain of collagenase 3) (Homo sapiens, UniProt P45452)
Test: Thiopeptolide hydrolysis assay, MMP-13;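 also: inhibition of enzymatic thiopeptolide substrate cleavage (100 µM) in pH 6.0 MES buffer with CaCl2 and DTNB, comparing hydrolysis with versus without inhibitor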
Conditions: IC50 μM, Table V; MMP-13

| IC50 [µM] | Compound |
| --- | --- |
| 0.0087 | COc1ccc(CNC(=O)c2ccc3c(c2)c(=O)n(Cc2ccc(C(=O)N(C)C)cc2)c2nncn32)cc1 [4-(4-Dimethylcarbamoyl-benzyl)-5-oxo-4,5-dihydro-[1,2,4]triazolo[4,3-a]quinazoline-7-carboxylic acid 4-methoxy-benzylamide] |
| 0.165 | O=C(NCc1ccc2c(c1)OCO2)c1ccc2c(c1)c(=O)n(Cc1ccccc1)c1nccn21 [4-Benzyl-5-oxo-4,5-dihydro-imidazo[1,2-a]quinazoline-7-carboxylic acid (benzo[1,3]dioxol-5-ylmethyl)-amide] |
| 2.1 | O=C(NCc1ccncc1)c1ccc2c(c1)c(=O)n(Cc1ccccc1)c1nccn21 [4-Benzyl-5-oxo-4,5-dihydro-imidazo[1,2-a]quinazoline-7-carboxylic acid (pyridin-4-ylmethyl)-amide] |
| 0.0865 | COc1ccc(CNC(=O)c2ccc3c(c2)c(=O)n(CCOc2ccc(Cl)cc2)c2nncn32)cc1 [4-[2-(4-Chloro-phenoxy)-ethyl]-5-oxo-4,5-dihydro-[1,2,4]triazolo[4,3-a]quinazoline-7-carboxylic acid 4-methoxy-benzylamide] |
| 0.0011 | O=C(O)c1ccc(Cn2c(=O)c3cc(C(=O)NCc4ccc(F)cc4)ccc3n3cnnc23)cc1 [4-{7-[(4-Fluoro)-benzylcarbamoyl]-5-oxo-5H-[1,2,4]triazolo[4,3-a]quinazol-4-ylmethyl}benzoic acid] |
| 0.0042 | O=C(O)c1ccc(Cn2c(=O)c3cc(C(=O)NCc4ccncc4)ccc3n3cnnc23)cc1 [4-{7-[(Pyridin-4-ylmethyl)-carbamoyl]-5-oxo-5H-[1,2,4]triazolo[4,3-a]quinazol-4-ylmethyl} benzoic acid] |
| 0.0011 | O=C(O)Cc1ccc(Cn2c(=O)c3cc(C(=O)NCc4ccc5c(c4)OCO5)ccc3n3cnnc23)cc1 [(4-{7-[(1,3-Benzodioxol-5-ylmethyl)-carbamoyl]-5-oxo-5H-[1,2,4]triazolo[4,3-a]quinazolin-4-ylmethyl}-phenyl)-acetic acid] |
| 0.0013 | COc1ccc(CNC(=O)c2ccc3c(c2)c(=O)n(Cc2ccc(CC(=O)O)cc2)c2nncn32)cc1 [(4-{7-[(4-Methoxy)-benzylcarbamoyl]-5-oxo-5H-[1,2,4]triazolo[4,3-a]quinazolin-4-ylmethyl}-phenyl)-acetic acid] |
| 0.0062 | O=C(O)Cc1ccc(Cn2c(=O)c3cc(C(=O)NCc4ccncc4)ccc3n3cnnc23)cc1 [(4-{7-[(Pyridin-4-yl)-methylcarbamoyl]-5-oxo-5H-[1,2,4]triazolo[4,3-a]quinazolin-4-ylmethyl}-phenyl)-acetic acid] |
| 0.0011 | COC(=O)c1ccc(Cn2c(=O)c3cc(C(=O)NCc4ccc5c(c4)OCO5)ccc3n3cnnc23)cc1 [Methyl 4-{7-[(1,3-benzodioxol-5-ylmethyl)-carbamoyl]-5-oxo-5H-[1,2,4]triazolo[4,3-a]quinazol-4-ylmethyl}benzoate] |
| 0.012 | COC(=O)c1ccc(Cn2c(=O)c3cc(C(=O)NCc4ccncc4)ccc3n3cnnc23)cc1 [Methyl 4-{7-[(pyridin-4-ylmethyl)-carbamoyl]-5-oxo-5H-[1,2,4]triazolo[4,3-a]quinazol-4-ylmethyl}benzoate] |
| 0.0022 | COC(=O)Cc1ccc(Cn2c(=O)c3cc(C(=O)NCc4ccc5c(c4)OCO5)ccc3n3cnnc23)cc1 [Methyl (4-{7-[(1,3-benzodioxol-5-ylmethyl)-carbamoyll-5-oxo-5H-[1,2,4]triazolo[4,3-a]quinazolin-4-ylmethyl}-phenyl)-acetate] |
| 0.0029 | COC(=O)Cc1ccc(Cn2c(=O)c3cc(C(=O)NCc4ccc(OC)cc4)ccc3n3cnnc23)cc1 [Methyl (4-{7-[(4-methoxy)-benzylcarbamoyl]-5-oxo-5H-[1,2,4]triazolo[4,3-a]quinazolin-4-ylmethyl}-phenyl)-acetate] |
| 0.013 | COC(=O)Cc1ccc(Cn2c(=O)c3cc(C(=O)NCc4ccncc4)ccc3n3cnnc23)cc1 [Methyl (4-{7-[(pyridin-4-yl)-methylcarbamoyl]-5-oxo-5H-[1,2,4]triazolo[4,3-a]quinazolin-4-ylmethyl}-phenyl)-acetate] |
| 0.0055 | COc1ccc(CNC(=O)c2ccc3c(c2)c(=O)n(Cc2ccccc2)c2nncn32)cc1 [N-(4-Methoxybenzyl)-4-benzyl-5-oxo-4,5-dihydro[1,2,4]triazolo [4,3-a]quinazoline-7-carboxamide] |

| Compound | IC50 [µM] |
| --- | --- |
| O=C(NCc1ccncc1)c1ccc2c(c1)c(=O)n(Cc1ccccc1)c1nncn21 [4-Benzyl-5-oxo-4,5-dihydro-[1,2,4]triazolo[4,3-a]quinazoline-7-carboxylic acid (pyridin-4-ylmethyl)-amide] | 0.04 |

Same assay, conditions: MMP13 IC50 μM, Table IVb

| IC50 [µM] | Compound |
| --- | --- |
| 0.016 | COc1ccc(CNC(=O)c2cnc3c(c2)c(=O)n(Cc2ccc(C#N)cc2)c(=O)n3C)cc1 [3-(4-Cyano-benzyl)-1-methyl-2,4-dioxo-1,2,3,4-tetrahydro-pyrido[2,3-d] pyrimidine-6-carboxylic acid 4-methoxy-benzylamide] |
| 0.032 | COc1ccc(CNC(=O)c2cnc3c(c2)c(=O)n(Cc2ccc(F)cc2)c(=O)n3C)cc1 [3-(4-Fluoro-benzyl)-1-methyl-2,4-dioxo-1,2,3,4-tetrahydro-pyrido[2,3-d]pyrimidine-6-carboxylic acid 4-methoxy-benzylamide] |
| 0.007 | Cn1c(=O)n(Cc2ccccc2)c(=O)c2cc(C(=O)NCc3ccc4c(c3)OCO4)cnc21 [3-Benzyl-1-methyl-2,4-dioxo-1,2,3,4-tetrahydro-pyrido[2,3-d] pyrimidine-6-carboxylic acid (1,3-benzodioxol-5-ylmethyl)-amide] |
| 0.00078 | Cn1c(=O)n(Cc2ccccc2)c(=O)c2cc(C(=O)NCc3ccc4c(c3)OCO4)ncc21 [3-Benzyl-1-methyl-2,4-dioxo-1,2,3,4-tetrahydro-pyrido[3,4-d]pyrimidine-6-carboxylic acid (1,3-benzodioxol-5-ylmethyl)-amide] |
| 2.9 | Cn1c(=O)n(Cc2ccccc2)c(=O)c2cc(C(=O)CCc3ccccc3)ccc21 [3-Benzyl-1-methyl-6-(3-phenyl-propionyl)-1H-quinazoline-2,4-dione] |
| 4.1 | Cn1c(=O)n(Cc2ccccc2)c(=O)c2cc(SCc3ccccc3)ccc21 [3-Benzyl-6-benzylsulfanyl-1-methyl-1H-quinazoline-2,4-dione] |
| 0.0016 | COc1ccc(CNC(=O)c2cnc3c(c2)c(=O)n(Cc2ccc(C(=O)O)cc2)c(=O)n3C)cc1 [4-[6-(4-Methoxy-benzylcarbamoyl)-1-methyl-2,4-dioxo-1,4-dihydro-2H-pyrido[2,3-d]pyrimidin-3-ylmethyl]-benzoic acid] |
| 0.0017 | COC(=O)c1ccc(Cn2c(=O)c3cc(C(=O)NCc4ccc(OC)cc4)ncc3n(C)c2=O)cc1 [Methyl 4-[6-(4-Methoxy-benzylcarbamoyl)-1-methyl-2,4-dioxo-1,4-dihydro-2H-pyrido[3,4-d]pyrimidin-3-ylmethyl]-benzoate] |

Same assay, conditions: MMP13 IC50 (nM), Table II

| IC50 | Compound |
| --- | --- |
| 1.5 µM | O=C(OCc1ccccc1)c1cc(C(=O)OCc2ccccc2)cc([N+](=O)[O-])c1 [5-Nitro-isophthalic acid dibenzyl ester] |
| 0.66 µM | O=C(OCc1ccc2c(c1)OCO2)c1cccc(C(=O)OCc2ccc3c(c2)OCO3)c1 [Isophthalic acid bis-(1,3-benzodioxol-5-ylmethyl) ester] |
| 0.2 µM and 0.19 µM | COc1ccc(CNC(=O)c2cc(C(=O)NCc3ccc4c(c3)OCO4)ccc2OC)cc1 [N-1,3-Benzodioxol-5-ylmethyl-4-methoxy-N′-(4-methoxy-benzyl)-isophthalamide] |
| 0.4 µM | COc1ccc(C(=O)NCc2ccc3c(c2)OCO3)cc1C(=O)NCc1ccc(Cl)cc1 [N-1,3-Benzodioxol-5-ylmethyl-N′-(4-chloro-benzyl)-4-methoxy-isophthalamide] |

Further lines, the compound ahead of its results:

| Compound | IC50 |
| --- | --- |
| CC(=O)Nc1ccc(C(=O)NCc2ccc3c(c2)OCO3)cc1C(=O)NCc1ccc2c(c1)OCO2 | 5.2 µM |
| Nc1ccc(C(=O)NCc2ccc3c(c2)OCO3)cc1C(=O)NCc1ccc2c(c1)OCO2 | 4.1 µM |
| CCOc1ccc(C(=O)NCc2cccc(OC)c2)cc1C(=O)NCc1cccc(OC)c1 | 1.83 µM |
| COc1ccc(CNC(=O)c2ccc(OC)c(C(=O)NCc3ccncc3)c2)cc1 | 1.5 µM |
| COc1ccc(C(=O)NCc2ccc3c(c2)OCO3)cc1C(=O)NCCOc1ccccc1 | 4.4 µM |
| COc1ccc(C(=O)NCc2ccccc2)cc1C(=O)NCCOc1ccccc1 | 8.7 µM |
| COc1ccc(CNC(=O)c2ccc(OC)c(C(=O)NCc3ccccc3)c2)cc1 [listing 1 of 2 here] | 0.43 µM |
| COc1cccc(CNC(=O)c2cccc(C(=O)NCc3cccc([N+](=O)[O-])c3)c2)c1 | 2.1 µM |
| O=C(NCc1ccncc1)c1cccc(C(=O)NCc2ccc(Cl)c(Cl)c2)c1 | 2.5 µM |
| COc1ccc(C(=O)NCCOc2ccccc2)cc1C(=O)NCc1ccc2c(c1)OCO2 | 3.1 µM |
| CCOCCNC(=O)c1ccc(OC)c(C(=O)NCc2ccc3c(c2)OCO3)c1 | 5.7 µM |
| COc1ccc(CNC(=O)c2ccc(OC)c(C(=O)NCc3ccccc3)c2)cc1 [listing 2 of 2 here] | 0.81 µM |

Same assay, conditions: MMP13 IC50 (μM), Table 1b

| IC50 [µM] | Compound |
| --- | --- |
| 0.092 | CCC#CCn1c(=O)c(C)c2sc(C(=O)NCc3ccc(F)cc3)cn2c1=O |
| 0.82 | CC(C)=CCn1c(=O)c(C)c2sc(C(=O)NCc3ccc(F)cc3)cn2c1=O |

Continued, compound first:

| Compound | IC50 [µM] |
| --- | --- |
| COC(=O)c1nc(Cn2c(=O)c(C)c3sc(C(=O)NCc4ccc(F)cc4)cn3c2=O)ncc1OC | 1.85 |
| Cc1c(=O)n(CCS(=O)(=O)c2ccc(F)cc2)c(=O)n2cc(C(=O)NCc3ccc(F)cc3)sc12 | 0.645 |
| Cc1c(=O)n(CCC(=O)c2ccc(F)cc2)c(=O)n2cc(C(=O)NCc3ccc(F)cc3)sc12 | 0.51 |
| C/C=C/Cn1c(=O)c(C)c2sc(C(=O)NCc3ccc(F)cc3)cn2c1=O | 0.53 |
| CCC(C)n1c(=O)c(C)c2sc(C(=O)NCc3ccc(F)cc3)cn2c1=O (stereo not shown) | 0.4 |
| Cc1c(=O)n(CCOc2ccccc2)c(=O)n2cc(C(=O)NCc3ccc(F)cc3)sc12 | 0.058 |
| Cc1c(=O)n(CCS(=O)(=O)Cc2ccccc2)c(=O)n2cc(C(=O)NCc3ccc(F)cc3)sc12 | 0.56 |
| CC/C=C/Cn1c(=O)c(C)c2sc(C(=O)NCc3ccc(F)cc3)cn2c1=O | 0.16 |

Same assay, conditions: read-out: MMP 13 IC50 μM; Table III

| IC50 [µM] | Compound |
| --- | --- |
| 0.0185 | COc1cccc(CNC(=O)c2cc3c(=O)n(Cc4ccc(OC(C)(C)C(=O)O)cc4)c(=O)n(C)c3s2)c1 |
| 4 | COc1ccc(CNC(=O)c2cc3c(=O)n(CCS(=O)(=O)c4ccccc4)c(=O)n(C)c3s2)cc1 |

Source: patent US20050004126A1 (priority 2001, published 2005)
